In ChEMBL document CHEMBL1201862, “PubChem BioAssay data set” (2004):
Activity calls are given as the source filed them.

What was measured:
[1] = Luminescence Cell-Based Dose Retest to Confirm Inhibitors of Cancer Stem Cells. [Related pubchem assays (depositor defined):AID2717, AID2721]; format: functional; settings: Homo sapiens
[2] = target: Prothrombin (Homo sapiens, UniProt P00734); test: Thrombin 1536 HTS Dose Response Confirmation. [Related pubchem assays: 1046 (Thrombin 1536 HTS; hits were confirmed in this assay)]; format: functional
[3] = Luminescence Cell-Based Dose Response to Identify Activators of 5'UTR Stem-Loop Driven Prion Protein mRNA Translation in H4-C Neuroglioblastoma Cells. [Related pubchem assays: 1829 (Project Summary), 1814 (Primary HTS)]; format: functional
[4] = Luminescence Cell-Based Dose Confirmation to Identify Activators of 5'UTR Stem-Loop Driven Alpha-Synuclein mRNA Translation in H4 Neuroglioblastoma Cells. [Related pubchem assays: 1829 (Project Summary), 1814 (Primary HTS)]; format: functional
[5] = system: H4; test: Luminescence Cell-Based Dose Response HTS to Identify Activators of 5'UTR Stem-Loop Driven Prion Protein mRNA Translation in H4 Neuroglioblastoma Cells. [Related pubchem assays: 1829 (Project Summary), 1814 (Primary HTS)]; format: functional; settings: Homo sapiens
[6] = Luminescence Cell-Based Dose Response to Identify Activators of Luciferase Translation or Activity in H4-C Neuroglioblastoma Cells. [Related pubchem assays: 1829 (Project Summary), 1814 (Primary HTS)]; format: functional
[7] = Luminescence Cell-Based Dose Response HTS to Identify Activators of Luciferase Translation or Activity in H4 […] Cells. [Related pubchem assays: 1829 (Project Summary), 1814 (Primary HTS)]; format: functional
[8] = Luminescence Cell-Based Dose Confirmation HTS to Identify Activators of 5'UTR Stem-Loop Driven Alpha-Synuclein mRNA Translation in H4 Neuroglioblastoma Cells. [Related pubchem assays: 1829 (Project Summary), 1814 (Primary HTS)]; format: functional
[9] = target: T1, Microphthalmia-associated transcription factor (Homo sapiens, UniProt O75030); test: TRPM1 promoter luciferase signal decrease, dose response, MITF inhibitor project, cell-based, SK-MEL-5, cherry-picked, set 3 (AID 493073); format: functional
T1 sequence (O75030 whole entry): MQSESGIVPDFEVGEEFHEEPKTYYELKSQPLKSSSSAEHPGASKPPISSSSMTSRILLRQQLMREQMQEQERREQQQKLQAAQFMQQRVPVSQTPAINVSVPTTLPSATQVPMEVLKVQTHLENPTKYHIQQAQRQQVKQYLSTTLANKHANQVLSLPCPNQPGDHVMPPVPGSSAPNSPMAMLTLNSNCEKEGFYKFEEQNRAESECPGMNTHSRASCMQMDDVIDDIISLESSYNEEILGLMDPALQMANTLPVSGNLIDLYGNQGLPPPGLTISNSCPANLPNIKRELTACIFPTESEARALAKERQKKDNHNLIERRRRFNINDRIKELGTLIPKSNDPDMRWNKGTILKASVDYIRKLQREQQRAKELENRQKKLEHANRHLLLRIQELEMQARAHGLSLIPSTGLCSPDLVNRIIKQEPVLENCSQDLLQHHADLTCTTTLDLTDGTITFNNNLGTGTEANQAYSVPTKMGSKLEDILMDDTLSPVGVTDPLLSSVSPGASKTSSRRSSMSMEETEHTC

[10] = cytotoxicity in HPDE-C7 cells, cell-based, fluorescence, HTS (AID 430); format: functional; settings: Homo sapiens
[11] = cytotoxicity in KRAS-transformed pancreatic duct cells, primary screen, cell-based, fluorescence, HTS (AID 431); format: functional; settings: Homo sapiens;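 also: cell line used: HPDE-C7K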
[12] = P. falciparum ATP4 D1247Y mutant growth inhibitors, dose response, NITD609-resistant line, SYBR Green, dry powder (AID 1159571); format: functional, cell-based;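 also: parasites synchronized at ring stage by sorbitol before testing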
[13] = HepG2 cell cytotoxicity, dose response, cytotoxicity control, plate reader, dry powder samples (AID 1159569); format: functional, cell-based;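 also: inhibitor potency with signal falling toward the positive control level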
[14] = P. falciparum 3D7-ScDHODH growth inhibitors, dose response, SYBR Green, dry powder samples (AID 1159570); format: functional, cell-based;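 also: parasite growth measured after 72 hours of compound exposure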
[15] = P. falciparum Dd2 growth inhibitors, dose response, SYBR Green, dry powder samples (AID 1159566); format: functional, cell-based;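 also: potency for growth inhibition with lower SYBR green DNA signal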
[16] = P. falciparum Dd2 growth inhibitors, dose response, SYBR Green, cherry-picked samples (AID 1159567); format: functional, cell-based
[17] = P. falciparum Dd2 growth inhibitors, dose response, SYBR Green, dry powder samples, set 9 (AID 1159568); format: functional, cell-based

Row | SMILES | IC50 [2] | AC50 [12] | AC50 [13] | AC50 [14] | AC50 [15] | AC50 [16] | further results
1 | Cc1nn(Cc2ccc(C(=O)Nc3nccs3)cc2)c(C)c1Cl | > 50000 nM (not active) |  |  |  |  |  | AC50 [1]: 747 nM (active)
2 | CC(NC(=O)Nc1ccc2c(c1)OCO2)C1CCCO1 (configuration not stated) |  |  |  |  |  |  | EC50 [3]: > 12000 nM (not active); EC50 [4]: > 12000 nM (not active); EC50 [5]: 33000 nM (active); EC50 [6]: > 12000 nM (not active); EC50 [7]: 8120 nM (active); EC50 [8]: < 100 nM (active)
3 | O=C1OC(c2ccccc2)=C/C1=C/N1CCCCC1 |  |  |  |  |  |  | EC50 [3]: 426 nM (active); EC50 [4]: 306 nM (active); EC50 [5]: 142 nM (active); EC50 [6]: 352 nM (active); EC50 [7]: 129 nM (inconclusive); EC50 [8]: < 100 nM (active)
4 | Nc1cccc2c1C(=O)N(C(=O)c1ccco1)C2=O | 8620 nM (active) |  |  |  |  |  | 
5 | COc1cc2c(cc1O)C(SC)=NC(C)(C)C2 |  |  |  |  |  |  | AC50 [9]: 11300 nM (active); EC50 [10]: 14100 nM (active); EC50 [11]: 13600 nM (active)
6 | CC1=C(C#N)C(=O)N(C)C(=O)/C1=N/Nc1ccc(S(N)(=O)=O)cc1 | > 50000 nM (not active) |  |  |  |  |  | 
7 | O=C(/N=C1\SCC(=O)N1c1ccccc1Cl)c1ccccc1 |  |  |  |  |  |  | EC50 [3]: 1860 nM (active); EC50 [4]: 717 nM (active); EC50 [5]: 50500 nM (active); EC50 [6]: > 12000 nM (not active); EC50 [7]: 11100 nM (active); EC50 [8]: < 100 nM (active)
8 | CO[C@@H]1CN(C)C(=O)c2ccc(NC(=O)c3nc4ccccc4s3)cc2OC[C@@H](C)N(Cc2ccccc2)C[C@H]1C |  | 1080 nM (active) | > 100000 nM (inactive) | 1750 nM (active) | 829 nM (active) | 1120 nM (active) | 
9 | COc1ccc(S(=O)(=O)N2CCC3(CC2)CN(Cc2ccncc2)[C@H](CO)c2[nH]c4cc(OC)ccc4c23)cc1 |  | 2220 nM (active) | 28500 nM (active) | 2140 nM (active) | 1720 nM (active) | 1890 nM (active) | 
10 | O=C(Cc1ccccc1)N1CC(=O)N2[C@H](CO)[C@H](c3ccc(C#CCc4ccccc4)cc3)[C@H]2C1 |  | 1180 nM (active) | 22500 nM (active) | 1730 nM (active) | 358 nM (active) | 918 nM (active) | AC50 [17]: 354 nM (active)
11 | O=C(Nc1cccc(F)c1)N1CCCCN2[C@H](CO)[C@H](c3ccc(C#Cc4ccccc4)cc3)[C@@H]2C1 |  | 55.7 nM (active) | > 100000 nM (inactive) | 38.3 nM (active) | 43.7 nM (active) | < 300 nM (active) | 
12 | CCCC#Cc1ccc2c(c1)[C@H]1[C@H](CCN1Cc1ccccc1F)[C@@H](CO)N2 |  | 2370 nM (active) | 71500 nM (active) | 5850 nM (active) | 2390 nM (active) | 2780 nM (active) | 
13 | COc1ccc(C(=O)n2nc(-c3ccco3)nc2N)cc1OC | 2230 nM (active) |  |  |  |  |  | 
